Measured values reported in patent US20220356170A1, “SREBP INHIBITOR COMPRISING A THIOPHENE CENTRAL RING” (Capulus Therapeutics, LLC, priority 2019, published 2022).
pIC50: −log10 of the molar value. Like-named read-outs stand apart in the source and are kept apart here.

Columns and labels:
[1] = In vitro % Fu, mouse plasma; type: in vitro ADME; details: read-out: In Vitro % Fu (Mo Plasma)
MT3 = assay: Cancer cell growth inhibition, Sulforhodamine B; type: cell-based; details: MT-3, 72 h, MT3 (breast)
Method in brief: (§1)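 Cells were treated for 72 hr in growth media with compounds from six 10-fold DMSO stock dilutions (10 mM to 0.1 uM stocks), final DMSO 0.1%, single data point per concentration. Growth was measured by Sulforhodamine B protein staining, and IC50, GI50, IC10, TGI, LC50, IC90 and GI90 were derived where calculable.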

PBMC = assay: Cancer cell growth inhibition, Sulforhodamine B; type: cell-based; details: PBMC (hematological), 72 hr; Non-Responder Cell Lines with IC50 >10 uM or Not Determined
Method in brief: as §1

UO31 = assay: Cancer cell growth inhibition, Sulforhodamine B; type: cell-based; details: Homo sapiens, UO-31; UO31 (kidney), 72 hr; Non-Responder Cell Lines with IC50 >10 uM or Not Determined
Method in brief: as §1

NCIH82 = assay: Cancer cell growth inhibition, Sulforhodamine B; type: cell-based; details: Homo sapiens, NCI-H82, 72 h, NCIH82 (lung)
Method in brief: as §1

22RV1 = assay: Cancer cell growth inhibition, Sulforhodamine B; type: cell-based; details: Homo sapiens; 22RV1 (prostate), 72 hr; Responder Cell Lines
Method in brief: as §1

HL-60 = assay: Cancer cell growth inhibition, Sulforhodamine B; type: cell-based; details: Homo sapiens; HL-60 (hematological), 72 hr; Responder Cell Lines
Method in brief: as §1

MDAMB468 = assay: Cancer cell growth inhibition, Sulforhodamine B; type: cell-based; details: Homo sapiens, MDA-MB-468, 72 h, MDAMB468 (breast)
Method in brief: as §1

PANC1005 = assay: Cancer cell growth inhibition, Sulforhodamine B; type: cell-based; details: Homo sapiens, Panc1005, 72 h, PANC1005 (pancreas)
Method in brief: as §1

NCIH460 = assay: Cancer cell growth inhibition, Sulforhodamine B; type: cell-based; details: Homo sapiens, NCI-H460; NCIH460 (lung), 72 hr; Non-Responder Cell Lines with IC50 >10 uM or Not Determined
Method in brief: as §1

DLD1 = assay: Cancer cell growth inhibition, Sulforhodamine B; type: cell-based; details: Homo sapiens, DLD-1; DLD1 (colon), 72 hr; Non-Responder Cell Lines with IC50 >10 uM or Not Determined
Method in brief: as §1

PC3 = assay: Cancer cell growth inhibition, Sulforhodamine B; type: cell-based; details: Homo sapiens, PC-3; PC3 (prostate), 72 hr; Non-Responder Cell Lines with IC50 >10 uM or Not Determined
Method in brief: as §1

[2] = In vivo pharmacokinetics, intravenous; details: male C57 BL/6 mice, dose 2.00 mg/kg (Compound 1), 2.43 mg/kg (Compound 2); for Vd: male, C57 BL/6, mouse, iv
Description: The in vivo pharmacokinetic properties of Compound 1 by both intravenous and oral administration were evaluated in male C57 BL/6 mice. The in vivo pharmacokinetic properties of Compound 2 by both intravenous and oral administration were evaluated in male C57 BL/6 mice for comparison.
Animals were housed in cages with clean bedding. Certified rodent diet was provided. Water was available ad libitum. Environmental controls for the animal room were set to maintain a temperature of 22 to 25° C., humidity of 40-70% RH, and a 12-hour light /12-hour dark cycle. Normal healthy animals certified by the attending veterinarian were selected and acclimatized for minimum three days prior to initiation of study.
Procedure for Blood Withdrawal: Mice were anesthetized using gaseous anesthesia. Blood samples were collected through a capillary, guided in retro-orbital plexus. At each time point, blood samples from 3 mice of each respective group were collected. The blood samples were collected in pre-labeled tubes. 0.2 to 0.3 mL of blood were collected from each mouse. After collection of the blood samples at each time point, the samples were stored on ice prior to centrifugation. Blood samples were centrifuged within 15 minutes to separate plasma. Centrifugations was done at 1540 rcf (5000 rpm) at 4° C. for 10 minutes. The plasma was separated and transferred to pre-labeled micro-centrifuge tubes and promptly frozen at −80±10° C. until bioanalysis was performed. Samples were identified by test item, group, animal number, and collection time point.
To evaluate pharmacokinetic properties of intravenous delivery, nine male C57 BL/6 mice were administered 2.00 mg Compound 1/kg animal weight through the tail vein. The concentration of Compound 1 in the plasma of the animals was evaluated at 0.083, 0.25, 0.5, 1, 2, 4, 8, and 24 hr by taking blood samples from the mice. Compound 2 was similarly administered for comparison.

[3] = Non-Responder Cell Lines with IC50 >10 uM or Not Determined

fraction unbound [1]: 0.007
pIC50 (MT3; [3]): < 5.00
pIC50 (MT3; Responder Cell Lines): > 5.00
pIC50 (UO31): < 5.00
pIC50 (NCIH82; [3]): < 5.00
pIC50 (NCIH82; Responder Cell Lines): > 5.00
pIC50 (22RV1): > 5.00
pIC50 (HL-60): > 5.00
pIC50 (MDAMB468; [3]): < 5.00
pIC50 (MDAMB468; Responder Cell Lines): > 5.00
pIC50 (PANC1005; [3]): < 5.00
pIC50 (PANC1005; Responder Cell Lines): > 5.00
pIC50 (NCIH460): < 5.00
pIC50 (DLD1): < 5.00
pIC50 (PC3): < 5.00
AUCExtra [2]: 7.27%
Vd ([2]; plasma, read-out: Vd): 0.73 L/kg
Vd ([2]; plasma, read-out: Vss): 0.7 L/kg
AUC(0-inf) ([2]; mouse, plasma): 25700 ng·h/mL
AUC(0-t) ([2]; mouse, plasma): 23800 ng·h/mL
C0 ([2]; mouse, plasma): 4630 ng/mL
clearance ([2]; mouse, plasma): 1.3 mL/min/kg
half-life ([2]; mouse, plasma): 6.5 h
MRT last ([2]; mouse, plasma, read-out: MRT0-last): 7.07 h
Structure (SMILES): CC(C)(O)c1cc(-c2csc(-c3ccc(C(=O)N4CCC(O)CC4)cc3Cl)c2)ccn1 [Compound 1, (3-chloro-4-(4-(2-(2-hydroxypropan-2-yl)pyridin-4-yl)thiophen-2-yl)phenyl)(4-hydroxypiperidin-1-yl)methanone]
pIC50 (PBMC): < 5.00
